In PubChem BioAssay AID248 (DTP/NCI, 2004):
“And” between values parts separate entries of the source, which are not always exact repeats. Identical values can stand only once. Inconclusive results and toxic doses are left out. Rule as the data show it: active = T/C of 150% or more; inactive = T/C below 125%.

Test system: L1210 leukemia ip in BDF1 mice, survival T/C
Experiment: NCI In Vivo Anticancer Drug Screen. Data for tumor model L1210 Leukemia (intraperitoneal) in B6D2F1 (BDF1) mice
Details: endpoint: mean survival time, higher = longer survival
In short: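 Tumor was transplanted into mice, which were then dosed with test compound or vehicle alone. Survival was recorded for each group, and the treated figure was expressed relative to the control figure.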

[1] = dose: 100.0 mg/kg/injection, schedule: Q04DX002 (ip), vehicle: Klucel (hydroxypropylcellulose) (HPC)
[2] = dose: 200.0 mg/kg/injection, schedule: Q04DX002 (ip), vehicle: Klucel (hydroxypropylcellulose) (HPC)
[3] = dose: 400.0 mg/kg/injection, schedule: Q04DX002 (ip), vehicle: Klucel (hydroxypropylcellulose) (HPC)
[4] = dose: 100.0 mg/kg/injection, schedule: Q01DX001 (ip), vehicle: Klucel (hydroxypropylcellulose) (HPC)
[5] = dose: 400.0 mg/kg/injection, schedule: Q01DX001 (ip), vehicle: Klucel (hydroxypropylcellulose) (HPC)
[6] = dose: 100.0 mg/kg/injection, schedule: Q01DX009 (ip), vehicle: saline with Tween-80
[7] = dose: 200.0 mg/kg/injection, schedule: Q01DX009 (ip), vehicle: saline with Tween-80
[8] = dose: 400.0 mg/kg/injection, schedule: Q01DX009 (ip), vehicle: saline with Tween-80
[9] = dose: 200.0 mg/kg/injection, schedule: Q01DX001 (ip), vehicle: Klucel (hydroxypropylcellulose) (HPC)
[10] = dose: 100.0 mg/kg/injection, schedule: Q01DX009 (ip), vehicle: saline
[11] = dose: 200.0 mg/kg/injection, schedule: Q01DX009 (ip), vehicle: saline
[12] = dose: 12.5 mg/kg/injection, schedule: Q01DX009 (ip), vehicle: saline with Tween-80
[13] = dose: 25.0 mg/kg/injection, schedule: Q01DX009 (ip), vehicle: saline with Tween-80
[14] = dose: 50.0 mg/kg/injection, schedule: Q01DX009 (ip), vehicle: saline with Tween-80

Measured: T/C

Cc1ncc(/C=N/O)n1Cc1ccccc1
inactive: dose: 100.0 mg/kg/injection, schedule: Q01DX001 (ip), vehicle: other 97 % of control and 90 % of control | [1] 98 % of control | dose: 100.0 mg/kg/injection, schedule: Q04DX002 (ip), vehicle: other 94 % of control and 96 % of control | dose: 100.0 mg/kg/injection, schedule: Q04DX003 (ip), vehicle: other 97 % of control | dose: 200.0 mg/kg/injection, schedule: Q01DX001 (ip), vehicle: other 94 % of control and 97 % of control | [2] 94 % of control | dose: 200.0 mg/kg/injection, schedule: Q04DX002 (ip), vehicle: other 99 % of control and 105 % of control | dose: 200.0 mg/kg/injection, schedule: Q04DX003 (ip), vehicle: other 97 % of control and 100 % of control | dose: 400.0 mg/kg/injection, schedule: Q01DX001 (ip), vehicle: other 93 % of control and 91 % of control | [3] 105 % of control | dose: 400.0 mg/kg/injection, schedule: Q04DX002 (ip), vehicle: other 99 % of control and 92 % of control | dose: 400.0 mg/kg/injection, schedule: Q04DX003 (ip), vehicle: other 89 % of control and 90 % of control

C(=C\c1ccccc1)/C=N/Nc1nnc(N/N=C/C=C/c2ccccc2)c2ccccc12
inactive: dose: 50.0 mg/kg/injection, schedule: Q01DX001 (ip), vehicle: carboxymethylcellulose (CMC) 102 % of control | dose: 100.0 mg/kg/injection, schedule: Q01DX001 (ip), vehicle: carboxymethylcellulose (CMC) 94 % of control | dose: 200.0 mg/kg/injection, schedule: Q01DX001 (ip), vehicle: carboxymethylcellulose (CMC) 102 % of control | dose: 400.0 mg/kg/injection, schedule: Q01DX001 (ip), vehicle: carboxymethylcellulose (CMC) 90 % of control

COc1ccc(C[n+]2cc([O-])on2)cc1
inactive: dose: 12.5 mg/kg/injection, schedule: Q01DX001 (ip), vehicle: Klucel (hydroxypropylcellulose) (HPC) 101 % of control | dose: 12.5 mg/kg/injection, schedule: Q04DX003 (ip), vehicle: Klucel (hydroxypropylcellulose) (HPC) 104 % of control | dose: 25.0 mg/kg/injection, schedule: Q01DX001 (ip), vehicle: Klucel (hydroxypropylcellulose) (HPC) 99 % of control | dose: 25.0 mg/kg/injection, schedule: Q04DX003 (ip), vehicle: Klucel (hydroxypropylcellulose) (HPC) 104 % of control | dose: 28.75 mg/kg/injection, schedule: Q01DX009 (ip), vehicle: Klucel (hydroxypropylcellulose) (HPC) 114 % of control | dose: 50.0 mg/kg/injection, schedule: Q01DX001 (ip), vehicle: Klucel (hydroxypropylcellulose) (HPC) 99 % of control | dose: 50.0 mg/kg/injection, schedule: Q04DX003 (ip), vehicle: Klucel (hydroxypropylcellulose) (HPC) 104 % of control | dose: 57.5 mg/kg/injection, schedule: Q01DX009 (ip), vehicle: Klucel (hydroxypropylcellulose) (HPC) 103 % of control | dose: 75.0 mg/kg/injection, schedule: Q04DX003 (ip), vehicle: other 106 % of control | [4] 102 % of control | dose: 115.0 mg/kg/injection, schedule: Q01DX009 (ip), vehicle: Klucel (hydroxypropylcellulose) (HPC) 120 % of control | dose: 115.0 mg/kg/injection, schedule: Q04DX003 (ip), vehicle: other 87 % of control | [5] 108 % of control

O=C(O)CNc1nc(Cl)nc(NCC(=O)O)n1
inactive: dose: 50.0 mg/kg/injection, schedule: Q01DX009 (ip), vehicle: Klucel (hydroxypropylcellulose) (HPC) 106 % of control | dose: 100.0 mg/kg/injection, schedule: Q01DX009 (ip), vehicle: Klucel (hydroxypropylcellulose) (HPC) 89 % of control

NC(=O)N/N=C1\CCCCC12CCCCC2
inactive: dose: 100.0 mg/kg/injection, schedule: Q04DX003 (ip), vehicle: acetone 95 % of control | dose: 200.0 mg/kg/injection, schedule: Q04DX003 (ip), vehicle: acetone 103 % of control | dose: 400.0 mg/kg/injection, schedule: Q04DX003 (ip), vehicle: acetone 97 % of control

O=C(O)/C(Br)=C(\Br)c1ccccc1
inactive: [6] 101 % of control | [7] 92 % of control | [8] 95 % of control

O=C1OC(=O)C2(Br)C3C=CC(CC3)C12Br (centres undefined)
inactive: dose: 100.0 mg/kg/injection, schedule: Q04DX003 (ip), vehicle: saline with Tween-80 93 % of control | dose: 200.0 mg/kg/injection, schedule: Q04DX003 (ip), vehicle: saline with Tween-80 96 % of control | dose: 400.0 mg/kg/injection, schedule: Q04DX003 (ip), vehicle: saline with Tween-80 98 % of control

COC(=O)c1nnn(CN(CN(CN(Cn2nnc(C(=O)OC)c2C(=O)OC)[N+](=O)[O-])[N+](=O)[O-])[N+](=O)[O-])c1C(=O)OC
inactive: dose: 75.0 mg/kg/injection, schedule: Q01DX001 (ip), vehicle: Klucel (hydroxypropylcellulose) (HPC) 108 % of control | dose: 150.0 mg/kg/injection, schedule: Q01DX001 (ip), vehicle: Klucel (hydroxypropylcellulose) (HPC) 100 % of control | dose: 300.0 mg/kg/injection, schedule: Q01DX001 (ip), vehicle: Klucel (hydroxypropylcellulose) (HPC) 110 % of control

COc1ccc(/C(Cc2ccccc2)=N\N=C(N)N)cc1
inactive: dose: 15.0 mg/kg/injection, schedule: Q01DX Z (ip), vehicle: carboxymethylcellulose (CMC) 97 % of control | dose: 30.0 mg/kg/injection, schedule: Q01DX Z (ip), vehicle: carboxymethylcellulose (CMC) 97 % of control | dose: 60.0 mg/kg/injection, schedule: Q01DX Z (ip), vehicle: carboxymethylcellulose (CMC) 97 % of control | dose: 120.0 mg/kg/injection, schedule: Q01DX Z (ip), vehicle: carboxymethylcellulose (CMC) 101 % of control | dose: 240.0 mg/kg/injection, schedule: Q01DX Z (oral), vehicle: carboxymethylcellulose (CMC) 108 % of control | dose: 480.0 mg/kg/injection, schedule: Q01DX Z (oral), vehicle: carboxymethylcellulose (CMC) 104 % of control | dose: 960.0 mg/kg/injection, schedule: Q01DX Z (oral), vehicle: carboxymethylcellulose (CMC) 88 % of control

O=CC(NC(=O)c1ccccc1)C(O)C(O)C(O)CO (centres undefined)
inactive: [4] 98 % of control | [9] 105 % of control | [5] 105 % of control

COC(=O)CCC(C)[N+](=O)[O-] (centres undefined)
inactive: [10] 112 % of control | [11] 104 % of control | dose: 400.0 mg/kg/injection, schedule: Q01DX009 (ip), vehicle: saline 98 % of control

CN(C)c1ccc(C(=O)O)cn1
inactive: [6] 96 % of control | dose: 100.0 mg/kg/injection, schedule: Q04DX003 (ip), vehicle: saline 100 % of control | [7] 105 % of control | dose: 200.0 mg/kg/injection, schedule: Q04DX003 (ip), vehicle: saline 100 % of control | [8] 102 % of control | dose: 400.0 mg/kg/injection, schedule: Q04DX003 (ip), vehicle: saline 100 % of control

Cc1cccc(Cl)c1NC(=O)C(Cl)Cl
inactive: [1] 113 % of control | [2] 107 % of control | [3] 110 % of control

CCCCCCCCCCCCCC(CCCCCC)C1CCCCC1 (centres undefined)
inactive: dose: 100.0 mg/kg/injection, schedule: Q01DX001 (ip), vehicle: acetone 100 % of control | dose: 200.0 mg/kg/injection, schedule: Q01DX001 (ip), vehicle: acetone 106 % of control | dose: 400.0 mg/kg/injection, schedule: Q01DX001 (ip), vehicle: acetone 101 % of control

COC(=O)CS(=O)(=O)C/C(=N\Nc1ccccc1)c1ccccc1
inactive: dose: 75.0 mg/kg/injection, schedule: Q01DX001 (ip), vehicle: saline 104 % of control | dose: 150.0 mg/kg/injection, schedule: Q01DX001 (ip), vehicle: saline 92 % of control | dose: 300.0 mg/kg/injection, schedule: Q01DX001 (ip), vehicle: saline 98 % of control

Cc1ccc(S(=O)(=O)c2ccc(C)c([N+](=O)[O-])c2)cc1[N+](=O)[O-]
inactive: [4] 104 % of control | [9] 118 % of control | [5] 96 % of control

CCCCCCCCCCC(OO)C(=O)OC(C)(C)C (centres undefined)
inactive: [1] 95 % of control | [2] 91 % of control | [3] 91 % of control

CCN1CC2c3cc(OC)c(OC)cc3CC(c3ccccc3)C2C1 (centres undefined)
inactive: [12] 98 % of control | [13] 95 % of control

C=Cc1c(C)c(O)cc2c1-c1ccc(O)c(C)c1CC2
inactive: dose: 6.25 mg/kg/injection, schedule: Q01DX009 (ip), vehicle: saline with Tween-80 102 % of control | [12] 102 % of control | [13] 98 % of control | [14] 91 % of control

CN=C(N)Nc1ccccc1
inactive: [14] 97 % of control | dose: 50.0 mg/kg/injection, schedule: Q01DX009 (ip), vehicle: saline 101 % of control | [6] 90 % of control | [10] 101 % of control | [7] 97 % of control | [11] 101 % of control
